Tests used:
[1] = biological target: cIAP1-BIR3 (Homo sapiens (Human), UniProt Q13490); assay: BIR binding assay (FRET competition), cIAP1 BIR3
Procedure: (§1) The BIR domain binding assays are FRET based competition assays that utilize His-tagged versions of each of the BIR2 and BIR3 domains from cIAP1, cIAP2, and XIAP (each domain assayed separately) each at a custom optimal concentration and a probe, 200 nM SMAC/DIABLO peptide […] labelled with AlexaFluor647 (part #crb 1110326h, Discovery Peptides). The assay is conducted in 50 mM HEPES, […], 1 mM CHAPS, 5% Glycerol, 1 mM DTT, in dI water with a final pH of 7.4 and final volume of 20 uL. Final protein domain concentrations are: 50 nM cIAP1-BIR3 (Part #APT-11-370 Reaction Biology), 100 nM XIAP-BIR3 (Part #APT-11-351 Reaction Biology), 200 nM XIAP-BIR2 (Part #APT-11-470 Reaction Biology), 325 nM cIAP2-BIR2 (Part #APT-11-489 Reaction Biology), 50 nM cIAP2-BIR3 (Part #APT-11-372 Reaction Biology), 325 nM cIAP1-BIR2 (Part #APT-11-487 Reaction Biology). Compounds were plated using a HP Tecan D300 printer in a final total volume of 202 nl and DMSO concentration normalized across the 15-point, 3-fold dilution series. Peptide and probe were prepared at 2× relative to the concentrations above in binding buffer, 10 uL added to the prepared compound plates, and incubated for 60 minutes. LANCE Eu-W1024 (part #AD0401 Perkin Elmer #, vendor) was prepared at 2× concentration in binding buffer for final concentration of 2 nM, 10 uL added to each well, and plates incubated for 30 minutes. Plates were read on an ENVISION multifunction plate reader with […] laser excitation to obtain the 615 nm/665 nm emission ratio as indicative of probe:protein proximity. Data was analyzed using GraphPad PRISM and curves fit using log(inhibitor) vs. response—Variable slope (four […] method to obtain IC50 and pIC50 values.

[2] = tested on: Jurkat HIV-luciferase clones; assay: Jurkat latency reversal assay; assay type: cell-based; details: Homo sapiens, 48 h; Jurkat latency reversal assay potency; read-out: Jurkat pEC50 (converted)
Procedure: Jurkat HIV-luciferase clones were maintained in RPMI medium 1640 (Gibco by Life Technologies) containing 10% (vol/vol) fetal bovine serum (SAFC/Sigma-Aldrich) and 25 units/mL penicillin, 25 units/mL streptomycin (Gibco by Life Technologies), and were split 1:4 every 3 to 4 days to maintain a cell density of ˜0.3 to 1 million cells/mL. The Jurkat clones were maintained with the addition of 500 nM EFV in the medium. Three Jurkat cell clones (C16, 115, and N6), each harboring one or two integrated HIV proviruses expressing the luciferase reporter gene, were added at equal amounts for a total of 5,000 cells per well to 384-well plates containing compound titrations. Dose-response testing was performed on compounds dissolved in dimethyl sulfoxide (DMSO; Fisher Scientific, Merelbeke, Belgium) dispensed in duplicate serial 3-fold, 14-point titrations using a D300e Digital Droplet Dispenser (Hewlett-Packard) to give final assay concentrations of 10 μM to […] in 50 μL of medium at 0.5% DMSO (vol/vol) final concentration. Cells and compound were incubated at 37° C. for 48 hours, unless otherwise indicated, followed by the addition of 20 μL of Steady-Glo® Luciferase (Promega). Luminescence resulting from the induction of the virally expressed luciferase was measured using an EnVision 2102 Multilabel Plate Reader (Perkin Elmer). Dose-response relationships were analyzed with GraphPad PRISM 6 using a four-parameter logistic regression model to calculate the concentration of compound that gives half-maximal response (EC50) and the maximal percent activation compared to the vehicle control.

[3] = biological target: cIAP2-BIR3 (Homo sapiens (Human), UniProt Q13489); assay: BIR binding assay (FRET competition), cIAP2 BIR3
Sequence of cIAP2-BIR3 (Q13489 238-349): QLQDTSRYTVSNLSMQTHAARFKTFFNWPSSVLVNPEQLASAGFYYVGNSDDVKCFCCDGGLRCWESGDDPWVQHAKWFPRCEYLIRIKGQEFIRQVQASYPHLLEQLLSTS
Procedure: as §1

[4] = biological target: XIAP-BIR3 (Homo sapiens (Human), UniProt P98170); assay: BIR binding assay (FRET competition), XIAP BIR3
Sequence of XIAP-BIR3 (P98170 241-356): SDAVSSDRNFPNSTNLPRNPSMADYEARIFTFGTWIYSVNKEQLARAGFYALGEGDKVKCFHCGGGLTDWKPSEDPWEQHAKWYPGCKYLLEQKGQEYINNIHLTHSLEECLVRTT
Procedure: as §1

Sequence of cIAP1-BIR3 (Q13490 253-363): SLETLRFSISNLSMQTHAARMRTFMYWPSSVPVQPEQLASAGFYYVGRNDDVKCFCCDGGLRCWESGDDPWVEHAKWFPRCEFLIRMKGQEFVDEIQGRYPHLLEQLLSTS

Compound: C[C@@H]1CN(CC(=O)N2CC(C)(C)c3[nH]c(=O)c(Cc4ccc(F)cc4)cc32)[C@@H](CN2CCO[C@H](COc3ccc(-c4ccc(OC[C@@H]5CN(C[C@H]6CN[C@H](C)CN6CC(=O)N6CC(C)(C)c7[nH]c(=O)c(Cc8ccc(F)cc8)cc76)CCO5)cc4)cc3)C2)CN1 [Example 50, 1,1′-(2,2′-((3R,3′R,6R,6′R)-(((2S,2'S)—(([1,1′-biphenyl]-4,4′-diylbis(oxy))bis(methylene))bis(morpholine-2,4-diyl))bis(methylene))bis(3-methylpiperazine-6,1-diyl))bis(acetyl))bis(6-(4-fluorobenzyl)-3,3-dimethyl-1,2,3,4-tetrahydro-5H-pyrrolo[3,2-b]pyridin-5-one)]
- IC50 [1]: 1.38 to 7.94 nM
- EC50 [2]: 0.49 to 12.6 nM
- IC50 [3]: 1.38 to 7.94 nM
- IC50 [4]: 1.38 to 7.94 nM

Compound: C[C@@H]1CN(CC(=O)N2CC(C)(C)c3[nH]c(=O)c(Cc4ccc(F)cc4)cc32)[C@@H](CN2CCC(CCCOc3cccc(OCCCC4CCN(C[C@H]5CN[C@H](C)CN5CC(=O)N5CC(C)(C)c6[nH]c(=O)c(Cc7ccc(F)cc7)cc65)CC4)c3)CC2)CN1 [Example 109, 1,1′-(2,2′-((3R,3′R,6R,6′R)-((((1,3-phenylenebis(oxy))bis(propane-3,1-diyl))bis(piperidine-4,1-diyl))bis(methylene))bis(3-methylpiperazine-6,1-diyl))bis(acetyl))bis(6-(4-fluorobenzyl)-3,3-dimethyl-1,2,3,4-tetrahydro-5H-pyrrolo[3,2-b]pyridin-5-one)]
- IC50 [1]: 15.8 to 31.6 nM
- EC50 [2]: 12.6 to 63.1 nM
- IC50 [3]: 7.94 to 15.8 nM

Compound: C[C@@H]1CN(CC(=O)N2CC(C)(C)c3[nH]c(=O)c(Cc4ccc(Cl)cc4Cl)cc32)[C@@H](CN2CCO[C@H](COc3cccc(OC[C@@H]4CN(C[C@H]5CN[C@H](C)CN5CC(=O)N5CC(C)(C)c6[nH]c(=O)c(Cc7ccc(Cl)cc7Cl)cc65)CCO4)c3)C2)CN1 [Compound 187]
- IC50 [1]: 7.94 to 15.8 nM
- EC50 [2]: 0.49 to 12.6 nM
- IC50 [3]: 7.94 to 15.8 nM
- IC50 [4]: 31.6 to 501 nM

Compound: C[C@@H]1CN(CC(=O)N2CC(C)(C)c3[nH]c(=O)c(Cc4ccc(F)cc4)cc32)[C@@H](CN2CCO[C@H](COc3ccc(S(=O)(=O)c4ccc(OC[C@@H]5CN(C[C@H]6CN[C@H](C)CN6CC(=O)N6CC(C)(C)c7[nH]c(=O)c(Cc8ccc(F)cc8)cc76)CCO5)cc4)cc3)C2)CN1 [Example 57, 1,1′-(2,2′-((3R,3′R,6R,6′R)-(((2S,2'S)-(((sulfonylbis(4,1-phenylene))bis(oxy))bis(methylene))bis(morpholine-2,4-diyl))bis(methylene))bis(3-methylpiperazine-6,1-diyl))bis(acetyl))bis(6-(4-fluorobenzyl)-3,3-dimethyl-1,2,3,4-tetrahydro-5H-pyrrolo[3,2-b]pyridin-5-one)]
- IC50 [1]: 31.6 to 501 nM
- EC50 [2]: 12.6 to 63.1 nM
- IC50 [3]: 15.8 to 31.6 nM
- IC50 [4]: 31.6 to 501 nM

Compound: C[C@@H]1CN(CC(=O)N2CC(C)(C)c3[nH]c(=O)c(Cc4ccc(F)cc4)cc32)[C@@H](CN2CCO[C@H](COc3ccc(C(=O)c4ccc(OC[C@@H]5CN(C[C@H]6CN[C@H](C)CN6CC(=O)N6CC(C)(C)c7[nH]c(=O)c(Cc8ccc(F)cc8)cc76)CCO5)cc4)cc3)C2)CN1 [Example 54, 1,1′-(2,2′-((3R,3′R,6R,6′R)-(((2S,2'S)-(((carbonylbis(4,1-phenylene))bis(oxy))bis(methylene))bis(morpholine-2,4-diyl))bis(methylene))bis(3-methylpiperazine-6,1-diyl))bis(acetyl))bis(6-(4-fluorobenzyl)-3,3-dimethyl-1,2,3,4-tetrahydro-5H-pyrrolo[3,2-b]pyridin-5-one)]
- IC50 [1]: 15.8 to 31.6 nM
- EC50 [2]: 0.49 to 12.6 nM
- IC50 [3]: 15.8 to 31.6 nM
- IC50 [4]: 15.8 to 31.6 nM

Compound: C[C@@H]1CN(CC(=O)N2CC(C)(C)c3[nH]c(=O)c(Cc4ccc(F)cc4)cc32)[C@@H](CN2CCC(CCCC3CCN(C[C@H]4CN[C@H](C)CN4CC(=O)N4CC(C)(C)c5[nH]c(=O)c(Cc6ccc(F)cc6)cc54)CC3)CC2)CN1 [Example 94, 1,1′-(2,2′-((3R,3′R,6R,6′R)-((propane-1,3-diylbis(piperidine-4,1-diyl))bis(methylene))bis(3-methylpiperazine-6,1-diyl))bis(acetyl))bis(6-(4-fluorobenzyl)-3,3-dimethyl-1,2,3,4-tetrahydro-5H-pyrrolo[3,2-b]pyridin-5-one)]
- IC50 [1]: 7.94 to 15.8 nM
- EC50 [2]: 0.49 to 12.6 nM
- IC50 [3]: 7.94 to 15.8 nM
- IC50 [4]: 15.8 to 31.6 nM

Compound: C[C@@H]1CN(CC(=O)N2CC(C)(C)c3[nH]c(=O)c(Cc4ccc(F)cc4)cc32)[C@@H](CN2CCO[C@H](COc3ccc(C(C)(C)c4ccc(C(C)(C)c5ccc(OC[C@@H]6CN(C[C@H]7CN[C@H](C)CN7CC(=O)N7CC(C)(C)c8[nH]c(=O)c(Cc9ccc(F)cc9)cc87)CCO6)cc5)cc4)cc3)C2)CN1 [Example 62, 1,1′-(2,2′-((3R,3′R,6R,6′R)-(((2S,2'S)-((((1,4-phenylenebis(propane-2,2-diyl))bis(4,1-phenylene))bis(oxy))bis(methylene))bis(morpholine-2,4-diyl))bis(methylene))bis(3-methylpiperazine-6,1-diyl))bis(acetyl))bis(6-(4-fluorobenzyl)-3,3-dimethyl-1,2,3,4-tetrahydro-5H-pyrrolo[3,2-b]pyridin-5-one)]
- IC50 [1]: 31.6 to 501 nM
- EC50 [2]: 12.6 to 63.1 nM
- IC50 [3]: 31.6 to 501 nM
- IC50 [4]: 31.6 to 501 nM

Compound: C[C@@H]1CN(CC(=O)N2CC(C)(C)c3[nH]c(=O)c(Cc4ccc(F)cc4)cc32)[C@@H](CN2CCN(S(=O)(=O)c3ccc(Oc4ccc(S(=O)(=O)N5CCN(C[C@H]6CN[C@H](C)CN6CC(=O)N6CC(C)(C)c7[nH]c(=O)c(Cc8ccc(F)cc8)cc76)[C@H](C)C5)cc4)cc3)C[C@H]2C)CN1 [Example 30, 2,2′-((3R,3′R,6R,6′R)-(((2R,2′R)-(oxybis(4,1-phenylenesulfonyl))bis(2-methylpiperazine-4,1-diyl))bis(methylene))bis(3-methylpiperazine-6,1-diyl))bis(1-(6-(4-fluorobenzyl)-3,3-dimethyl-5-oxo-2,3,4,5-tetrahydro-1H-pyrrolo[3,2-b]pyridin-1-yl)ethan-1-one)]
- IC50 [1]: 31.6 to 501 nM
- EC50 [2]: 316 to 3310 nM
- IC50 [3]: 15.8 to 31.6 nM
- IC50 [4]: 31.6 to 501 nM

Compound: C[C@@H]1CN(CC(=O)N2CC(C)(C)c3[nH]c(=O)c(Cc4ccc(F)cc4)cc32)[C@@H](CN2CCO[C@H](COc3ccc(C(C)(C)c4cccc(C(C)(C)c5ccc(OC[C@@H]6CN(C[C@H]7CN[C@H](C)CN7CC(=O)N7CC(C)(C)c8[nH]c(=O)c(Cc9ccc(F)cc9)cc87)CCO6)cc5)c4)cc3)C2)CN1 (stereo in doubt) [Example 61, 1,1′-(2,2′-((3R,3′R,6R,6′R)-(((2S,2'S)-((((1,3-phenylenebis(propane-2,2-diyl))bis(4,1-phenylene))bis(oxy))bis(methylene))bis(morpholine-2,4-diyl))bis(methylene))bis(3-methylpiperazine-6,1-diyl))bis(acetyl))bis(6-(4-fluorobenzyl)-3,3-dimethyl-1,2,3,4-tetrahydro-5H-pyrrolo[3,2-b]pyridin-5-one)]
- IC50 [1]: 31.6 to 501 nM
- EC50 [2]: 12.6 to 63.1 nM
- IC50 [3]: 31.6 to 501 nM
- IC50 [4]: 31.6 to 501 nM

Reference: patent publication US20250326771A1, “PIPERAZINE DERIVATIVES USEFUL IN HIV THERAPY” (VIIV HEALTHCARE COMPANY, priority 2022, published 2025)
